Reference: the supplement of paper PMC10307832

Columns and labels:
Experiment in all cases: relative viability (nuclei count vs DMSO), 5 days (fraction); higher = more cells survive
MK-2206 + Navitoclax = compound: NC1(c2ccc(-c3nc4ccn5c(=O)[nH]nc5c4cc3-c3ccccc3)cc2)CCC1 [MK-2206] + CC1(C)CCC(c2ccc(Cl)cc2)=C(CN2CCN(c3ccc(C(=O)NS(=O)(=O)c4ccc(N[C@H](CCN5CCOCC5)CSc5ccccc5)c(S(=O)(=O)C(F)(F)F)c4)cc3)CC2)C1 [Navitoclax] (partner 0.5 µM)
How it was run: (§1)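 The day after seeding in 1536-well plates, lung cancer cell lines were treated by pin tool with a single drug, or with a fixed anchor-drug dose together with five library-drug doses (not always all listed) in √10 steps. After 5 days, a combined fix-and-stain solution (final 0.05% Triton X-100, 1% formaldehyde, 1 ug/ml Hoechst) was added. Nuclei counted on 4× images gave relative viability as treated counts over vehicle counts, reported as the median of duplicate plates.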

MK-2206 + Phenformin = compound: NC1(c2ccc(-c3nc4ccn5c(=O)[nH]nc5c4cc3-c3ccccc3)cc2)CCC1 [MK-2206] + N=C(N)NC(=N)NCCc1ccccc1 [Phenformin] (partner 250 µM)
How it was run: as §1

MK-2206 + Dasatinib = compound: NC1(c2ccc(-c3nc4ccn5c(=O)[nH]nc5c4cc3-c3ccccc3)cc2)CCC1 [MK-2206] + Cc1nc(Nc2ncc(C(=O)Nc3c(C)cccc3Cl)s2)cc(N2CCN(CCO)CC2)n1 [Dasatinib] (partner 0.075 µM)
How it was run: as §1

Pictilisib + Alpelisib = compound: CS(=O)(=O)N1CCN(Cc2cc3nc(-c4cccc5[nH]ncc45)nc(N4CCOCC4)c3s2)CC1 [Pictilisib] + Cc1nc(NC(=O)N2CCC[C@H]2C(N)=O)sc1-c1ccnc(C(C)(C)C(F)(F)F)c1 [Alpelisib] (partner 2 µM)
How it was run: as §1

MK-2206 + Pemetrexed = compound: NC1(c2ccc(-c3nc4ccn5c(=O)[nH]nc5c4cc3-c3ccccc3)cc2)CCC1 [MK-2206] + Nc1nc2[nH]cc(CCc3ccc(C(=O)N[C@@H](CCC(=O)O)C(=O)O)cc3)c2c(=O)[nH]1 [Pemetrexed] (partner 0.2 µM)
How it was run: as §1

Cell Line | relative viability (MK-2206 + Navitoclax; first compound 0.01 µM) | relative viability (MK-2206 + Navitoclax; first compound 0.03162 µM) | relative viability (MK-2206 + Navitoclax; first compound 0.3162 µM) | relative viability (MK-2206 + Navitoclax; first compound 1 µM) | relative viability (MK-2206 + Phenformin; first compound 0.01 µM) | relative viability (MK-2206 + Phenformin; first compound 0.03162 µM) | relative viability (MK-2206 + Phenformin; first compound 0.3162 µM) | relative viability (MK-2206 + Phenformin; first compound 1 µM) | relative viability (MK-2206 + Dasatinib; first compound 0.01 µM) | relative viability (MK-2206 + Dasatinib; first compound 0.03162 µM) | relative viability (MK-2206 + Dasatinib; first compound 0.3162 µM) | relative viability (MK-2206 + Dasatinib; first compound 1 µM) | relative viability (Pictilisib + Alpelisib; first compound 0.02 µM) | relative viability (Pictilisib + Alpelisib; first compound 0.06325 µM) | relative viability (Pictilisib + Alpelisib; first compound 0.6325 µM) | relative viability (Pictilisib + Alpelisib; first compound 2 µM) | relative viability (MK-2206 + Pemetrexed; first compound 0.01 µM) | relative viability (MK-2206 + Pemetrexed; first compound 0.03162 µM) | relative viability (MK-2206 + Pemetrexed; first compound 0.3162 µM) | relative viability (MK-2206 + Pemetrexed; first compound 1 µM)
HCC-827 | 1.06 | 1.12 | 1.04 | 1.01 | 0.45 | 0.434 | 0.402 | 0.326 | 0.476 | 0.272 | 0.258 | 0.362 | 1.02 | 0.829 | 0.892 | 0.518 | 0.272 | 0.242 | 0.268 | 0.274
PC-3 [JPC-3] | 0.817 | 0.849 | 0.83 | 0.825 | 0.48 | 0.486 | 0.475 | 0.466 | 0.968 | 1.01 | 1.06 | 0.934 | 1 | 1.09 | 1.04 | 0.976 | 1.12 | 1.24 | 1.23 | 1.07
NCI-H1355 | 0.961 | 0.828 | 0.961 | 0.819 | 0.434 | 0.476 | 0.4 | 0.317 | 0.734 | 0.7 | 0.701 | 0.432 | 0.828 | 0.741 | 0.865 | 0.505 | 1.04 | 1.02 | 1.02 | 1.04
NCI-H1975 | 1.05 | 0.969 | 0.938 | 0.787 | 0.428 | 0.402 | 0.312 | 0.326 | 0.4 | 0.346 | 0.292 | 0.341 | 0.69 | 0.564 | 0.41 | 0.227 | 0.314 | 0.286 | 0.331 | 0.262
NCI-H460 | 1.16 | 1.16 | 1.21 | 1.07 | 0.489 | 0.613 | 0.521 | 0.45 | 0.417 | 0.579 | 0.37 | 0.338 | 0.509 | 0.521 | 0.301 | 0.141 | 0.0681 | 0.0647 | 0.0757 | 0.0577
EPLC-272H | 0.915 | 1.18 | – | 1.08 | 0.323 | 0.285 | 0.29 | 0.336 | 0.486 | 0.333 | 0.256 | 0.306 | 1.06 | 0.877 | 0.826 | 0.738 | 0.329 | 0.319 | 0.3 | 0.354
SK-LU-1 | 1.01 | 0.992 | 1.08 | 0.874 | 0.536 | 0.602 | 0.476 | 0.503 | 0.196 | 0.19 | 0.198 | 0.151 | 1.16 | 1.29 | 0.895 | 0.713 | 0.964 | 0.963 | 1.04 | 0.962
NCI-H322M | 1.14 | 1.13 | 1.25 | 1.1 | 0.756 | 0.822 | 0.725 | 0.769 | 0.258 | 0.268 | 0.288 | 0.284 | 0.845 | 0.8 | 0.872 | 0.684 | 0.64 | 0.634 | 0.666 | 0.679
NCI-H2405 | 0.838 | 1.06 | 0.83 | 0.779 | 0.392 | 0.402 | 0.36 | 0.321 | 0.208 | 0.241 | 0.182 | 0.231 | 0.957 | 0.785 | 0.732 | 0.424 | 1.01 | 1.07 | 1.02 | 0.978
NCI-H1666 | 0.953 | 0.927 | 0.81 | 0.655 | 0.586 | 0.595 | 0.568 | 0.563 | 0.751 | 0.838 | 0.818 | 0.744 | 0.982 | 0.989 | 0.748 | 0.428 | 0.793 | 0.774 | 1.03 | 0.787
H3255 | 0.519 | 0.579 | 0.439 | 0.312 | 0.357 | 0.322 | 0.368 | 0.343 | 0.347 | 0.344 | 0.288 | 0.284 | 0.684 | 0.601 | 0.601 | 0.523 | 0.557 | 0.614 | 0.538 | 0.508
NCI-H2347 | 0.752 | 0.883 | 0.684 | 0.883 | 0.443 | 0.345 | 0.51 | 0.224 | 0.381 | 0.315 | 0.281 | 0.254 | 1.1 | 1.09 | 0.912 | 0.873 | 0.408 | 0.44 | 0.433 | 0.45
LK-2 | 0.837 | 0.938 | 0.684 | 0.61 | 0.302 | 0.543 | 0.315 | 0.174 | 0.231 | 0.299 | 0.327 | 0.19 | 1.16 | 1.06 | 0.925 | 0.905 | 0.265 | 0.309 | 0.246 | 0.252
HCC-15 | 0.687 | 0.622 | 0.617 | 0.62 | 0.469 | 0.519 | 0.442 | 0.288 | 0.578 | 0.643 | 0.442 | 0.422 | 0.829 | 0.926 | 0.829 | 0.714 | 0.254 | 0.198 | 0.218 | 0.204
SW 1573 | 0.876 | 0.937 | 0.714 | 0.737 | 0.419 | 0.457 | 0.27 | 0.237 | 0.431 | 0.554 | 0.364 | 0.419 | 0.891 | 0.766 | 0.658 | 0.532 | 0.782 | 0.793 | 0.726 | 0.713
NCI-H838 | 1.15 | 1.19 | 1.19 | 1.04 | 0.554 | 0.722 | 0.517 | 0.447 | 0.282 | 0.279 | 0.288 | 0.268 | 1.04 | 0.968 | 1.02 | 0.467 | 0.245 | 0.227 | 0.255 | 0.201
